Measurements: article PMC11969438 (Inorganic Chemistry Frontiers, 2025)
pEC50, pIC50: −log10 of the molar value.

What was measured:
HCT116/OxR cells = test: MTT-based cell viability assay, 72 h; design: species or system human
Experimental: (§1) Cell models were seeded (2–2.5 × 10^3 cells per well) in 96-well plates. After 24 h of recovery, the compounds were applied at the concentrations indicated in triplicate. Cell viability was determined after 72 h of continuous drug incubation using an MTT-based cell viability assay (EZ4U, Biomedica, Vienna, Austria) according to the manufacturer's recommendations. Absorbance was measured at 450 nm (vs. 620 nm as reference) using a multimode microplate reader (Tecan Spark, Zurich, Switzerland). Half-maximal inhibitory concentrations (IC50 values) were derived via interpolation from dose–response curves, modeled with the four-parameter logistic (4PL) nonlinear regression model in GraphPad Prism (La Jolla, CA, USA) from at least three independent experiments.

THP1-Dual cells = test: Intracellular platinum accumulation in vitro by ICP-MS; format: cell-based, human; details: 3 h exposure; for cellular platinum accumulation: compared to oxaliplatin
Experimental: The THP1-Dual cell model was seeded at 1 × 10^6 cells per well in six-well plates. After 24 h of recovery, the compounds were applied at the concentrations indicated in triplicate. After 3 h of drug exposure, the cells were prepared as published previously.[13] […] The lysate was filled up to 8 mL with water. The platinum concentration was determined by ICP-MS analysis. Platinum and rhenium standards were derived from CPI International (Amsterdam, the Netherlands). The total platinum content was determined with an Agilent 7800 quadrupole-based ICP-MS instrument (Agilent Technologies, Tokyo, Japan) equipped with an Agilent SPS 4 autosampler (Agilent Technologies, Tokyo, Japan) and a MicroMist nebulizer at a sample uptake rate of approximately 0.2 mL min^−1. […] Argon was used as a plasma gas (15 L min^−1) and as a carrier gas (∼1.1 L min^−1). The dwell time was set to 0.1 s and the measurements were performed in 12 replicates with 100 sweeps. Rhenium served as an internal standard for platinum.

[1] = tested on: IRF pathway (STING-dependent); test: IRF-inducible luciferase reporter in THP1-Dual reporter cell model; format: cell-based, human; details: for IRF %EMAX of MSA-2: maximal response relative to MSA-2, highest tested dose 100 μM; for pEC50: 24 h exposure, normalized to cell viability, oxaliplatin in combinations 5 μM
From the text: (§2) The THP1-Dual™ reporter cell model for simultaneously monitoring the activity of the IRF and NF-κB pathway contains an IRF-inducible luciferase reporter under the control of an ISG54 minimal promoter in conjunction with five interferon (IFN)-stimulated response elements, and an induced SEAP driven by an IFN-β minimal promoter fused to five copies of the NF-κB consensus transcriptional response element and three copies of the c-Rel binding site. The luciferase and SEAP reporter are measurable in the cell culture supernatant using QUANTI-Luc™ 4 Lucia/Gaussia (InvivoGen) and QUANTI-Blue™ (InvivoGen) solution, respectively. Cells were seeded at 1 × 10^5 cells per well in 96-well plates in RPMI-1640 medium, supplemented with 10% FCS, L-glutamine and Pen-Strep. After 2 h of recovery, the compounds were applied at the concentrations indicated in triplicate. The cell culture supernatant (SN) was collected after 24 h of drug incubation and secreted luciferase and SEAP reporter levels were measured according to the manufacturer's recommendations. In brief, for the detection of luciferase, 20 μL of SN were transferred into 96-well white opaque plates, and 30 μL of QUANTI-Luc™ reagent were added per well using an injector module in a multimode microplate reader (Tecan Spark, Zurich, Switzerland). Luminescence was recorded at a reading time of 0.1 second. For the detection of SEAP, 10 μL of SN were transferred to 96-well plates and 90 μL of QUANTI-Blue™ were added per well. Absorbance was measured at 620 nm. Half-maximal effective concentrations (EC50 values) were derived via interpolation from dose–response curves, modeled with the four-parameter logistic (4PL) nonlinear regression model in GraphPad Prism. For comparison, the maximal response rate of the prodrug was depicted in the percent of the maximal response rate achieved by SR-717 or MSA-2 (%EMAX) at the respective concentrations tested. Activatability, tested in co-incubation experiments with AA (50 μM), was expressed as the area under the curve (AUC) ratio of +AA vs. −AA-treated cells. The STING-dependency of the reporter induction was tested by co-administration of the STING inhibitor H-151 (10 μM), added to the cell culture medium 2 h before applying the investigated compounds. In addition to monitoring secreted reporter levels, the cell viability of the reporter cells was determined after 24 h of drug treatment by an MTT-based cell viability assay.

[2] = tested on: NF-κB pathway (STING-dependent); test: NF-κB-inducible SEAP reporter in THP1-Dual reporter cell model; format: cell-based, human; details: for NF-κB %EMAX of MSA-2: maximal response relative to MSA-2; for pEC50: 24 h exposure, normalized to cell viability, oxaliplatin in combinations 5 μM
From the text: as §2

[3] = Platinum distribution study in vivo by ICP-MS; design: species or system CT-26 tumor-bearing BALB/c mice; details: i.v., 24 h after second dose; for serum platinum levels: two doses
Experimental: Tumor size was determined daily via manual caliper measurement. […] Animals were euthanized via cervical dislocation.
The generation and treatment of tumor-bearing mice are outlined in the section “In vivo syngraft experiments” described above. Mouse tissues were processed as described previously.[13] Briefly, serum was isolated from peripheral blood by centrifugation (900g, 10 min, 4 °C, twice). Tissues were digested in 20% nitric acid and hydrogen peroxide using an open-vessel graphite digestion system. The platinum concentration was determined by ICP-MS analysis; for details see “Intracellular platinum accumulation in vitro by ICP-MS”.

[4] = Hydrolytic stability in phosphate buffer, UHPLC; format: physicochemical; details: 1 mM, 150 mM PB pH 7.4, 20 °C, over 24 h
Experimental: PB (150 mM, pH 7.4) containing 1 mM platinum compound was incubated at 20 °C, with and without the addition of 10 eq. of AA. The reaction was monitored using a Thermo Scientific Dionex UltiMate 3000 UHPLC system with a Waters Acquity UPLC BEH C18 1.7 μm 3.0 × 50 mm column. Milli-Q water containing 0.1% formic acid and acetonitrile containing 0.1% formic acid were used as eluents. A gradient of 5–95% over 5 min was used with a flow of 0.6 mL min^−1. To evaluate the current state of the reaction, the peak area of the parental complex was used.

[5] = tested on: THP1-Dual, HCT116, HCT116/OxR and CT-26 cells; test: MTT-based cell viability assay, 72 h, statements over all investigated cell lines; design: species or system human and murine
Experimental: as §1

O=C1[O][Pt]2([NH][C@@H]3CCCC[C@H]3[NH]2)[O]C1=O [oxaliplatin, reference compound]
pIC50 (HCT116/OxR cells; without AA): 4.56 | cellular platinum accumulation (THP1-Dual cells): accumulated dose-dependently | activation of IRF signaling pathway ([1]; 24 h): did not induce observable activation | activation of NF-κB signaling pathway ([2]; 24 h): did not induce observable activation | serum platinum levels [3]: Low serum platinum levels

COCCOCCOCCOCCNC(=O)[O][Pt-2]12([O]C(=O)CCC(=O)c3cc4cc(OC)c(OC)cc4s3)([NH2+][C@@H]3CCCC[C@H]3[NH2+]1)[O]C(=O)C(=O)[O]2 [Ox-MSA-PEG-Ca, (OC-6-34)-[(1R,2R)-1,2-cyclohexanediamino]-oxalato-[4-(5,6-dimethoxybenzo[b]thiophen-2-yl)-4-oxobutylcarboxylato]-[3,6,9,12-tetraoxatridecan-1-amino]platinum(IV)]
stability in PB [4]: very well comparable to Ox-MSA-PEG-Es | resistance factor (IC50 ratio HCT116/OxR vs parental HCT116) (HCT116/OxR cells): 2.7 fold | IC50 ratio prodrug vs free oxaliplatin, maximum over cell models [5]: ≤ 40 fold | IRF EC50 ratio fold MSA-2 ([1]; 24 h): 6.3 fold | IRF %EMAX of MSA-2 ([1]; 24 h): 68% | pEC50 [1]: 4.24 | NF-κB EC50 ratio fold MSA-2 ([2]; 24 h): 3.1 fold | NF-κB %EMAX of MSA-2 ([2]; 24 h): 24% | pEC50 [2]: 4.26 | liver platinum level relative to tumor ([3]; two doses equimolar to 9 mg kg^−1 oxaliplatin): 9.7 fold | serum platinum levels [3]: Low serum platinum levels

COCCOCCOCCOCCC(=O)[O][Pt-2]12([O]C(=O)CCC(=O)c3cc4cc(OC)c(OC)cc4s3)([NH2+][C@@H]3CCCC[C@H]3[NH2+]1)[O]C(=O)C(=O)[O]2 [Ox-MSA-PEG-Es, (OC-6-44)-[(1R,2R)-1,2-cyclohexanediamino]-oxalato-[4-(5,6-dimethoxybenzo[b]thiophen-2-yl)-4-oxobutylcarboxylato]-[2,5,8,11-tetraoxatetradecanoato]platinum(IV)]
stability in PB [4]: stable | resistance factor (IC50 ratio HCT116/OxR vs parental HCT116) (HCT116/OxR cells): > 3.1 fold | IC50 ratio prodrug vs free oxaliplatin, maximum over cell models [5]: ≤ 40 fold | cellular platinum content vs oxaliplatin (THP1-Dual cells; 10 μM): significantly higher platinum content | intracellular platinum levels vs oxaliplatin (THP1-Dual cells; 50 μM, without statistical significance): lower intracellular platinum levels | cellular platinum accumulation (THP1-Dual cells): did not show a comparable amount of platinum hyper-accumulation | IRF EC50 ratio fold MSA-2 ([1]; 24 h): 8.6 fold | IRF %EMAX of MSA-2 ([1]; 24 h): 24% | pEC50 [1]: 4.10 | impact of reducing conditions on IRF-induced reporter signal (AUC ratio +AA/−AA) ([1]; AA 50 μM): significantly enhanced | NF-κB EC50 ratio fold MSA-2 ([2]; 24 h): > 5.7 fold | NF-κB %EMAX of MSA-2 ([2]; 24 h): 15% | pEC50 [2]: < 4.00
